The text below walks through data of ChEMBL document CHEMBL3044779, “The action of herbicides on fatty acid biosynthesis and elongation in barley and cucumber” (Pest Manag Sci, 2010).

SMILES strings stand for the structures.

The subject of assay [1] is Hordeum vulgare. Nature of the assay: Inhibition of fatty acid synthesis in Hordeum vulgare (barley) using [14C]malonate assessed as [14C]-labeled 26C fatty acid level at 1 uM after 3 hr by liquid scintillation counting (reference value: 7.6 +/- 1.8%). Format: functional. Also on record: scale not given: the % may be the effect or the level left.
Assay [2] concerns Hordeum vulgare. Nature of the assay: Inhibition of fatty acid synthesis in Hordeum vulgare (barley) using [14C]malonate assessed as [14C]-labeled 20C fatty acid level at 1 uM after 3 hr by liquid scintillation counting (reference value: 6.1 +/- 0.5%). Format: functional. Further details: scale not given: the % may be the effect or the level left.
Assay [3] concerns Cucumis sativus. Nature of the assay: Inhibition of fatty acid synthesis in Cucumis sativus (cucumber) using [14C]acetate assessed as [14C]-labeled 16C fatty acid level at 100 uM after 3 hr by liquid scintillation counting (reference value: 31 +/- 2.8%). The class given is functional. Also on record: scale not given: the % may be the effect or the level left.
In assay [4] the test system is Hordeum vulgare. Nature of the assay: Inhibition of fatty acid synthesis in Hordeum vulgare (barley) using [14C]malonate assessed as [14C]-labeled 16C fatty acid level at 1 uM after 3 hr by liquid scintillation counting (reference value: 8.7 +/- 0.2%). Format: functional. Further details: scale not given: the % may be the effect or the level left.
Assay [5] concerns Hordeum vulgare. Put plainly: Inhibition of fatty acid synthesis in Hordeum vulgare (barley) using [14C]acetate assessed as [14C]-labeled 16C fatty acid level at 1 uM after 3 hr by liquid scintillation counting (reference value: 23.3 +/- 0.2%). The class given is functional. Also on record: scale not given: the % may be the effect or the level left.
For assay [6], the system named is Cucumis sativus. Put plainly: Inhibition of fatty acid synthesis in Cucumis sativus (cucumber) assessed as inhibition of [14C]acetate incoporation in total fatty acids at 100 uM measured as total disintegration per g of fresh weight after 3 hr by liquid scintillation counting (reference value: 9.2 +/- 2.1 dpm x 10^6 g'1 fresh wt). Format: functional.
Assay [7] has as its system Hordeum vulgare. Nature of the assay: Inhibition of fatty acid synthesis in Hordeum vulgare (barley) assessed as inhibition of [14C]malonate incoporation in total fatty acids at 1 uM measured as total disintegration per g of fresh weight after 3 hr by liquid scintillation counting (reference value: 5.4 +/- 0.9 1 dpm x 10^6 g'1 fresh wt). Format: functional.
The test system of assay [8] is Hordeum vulgare. Put plainly: Inhibition of fatty acid synthesis in Hordeum vulgare (barley) assessed as inhibition of [14C]acetate incoporation in total fatty acids at 1 uM measured as total disintegration per g of fresh weight after 3 hr by liquid scintillation counting (reference value: 4.6 +/- 1.2 dpm x 10^6 g'1 fresh wt). Format: functional.
The target in assay [9] is T1, Acetyl-CoA carboxylase (Zea mays, UniProt Q3V4E6). Nature of the assay: Inhibition of Zea mays (maize) chloroplastic ACCase using acetyl-coA as substrate assessed as inhibition of [14C]NaHCO3 incorporation into malonyl-coA incubated for 10 min prior to substrate addition measured for 20 min by liquid scintillation counting.
Assay [10] deals with T1, Acetyl-CoA carboxylase. Put plainly: Inhibition of Zea mays (maize) cytosolic ACCase using acetyl-coA as substrate assessed as inhibition of [14C]NaHCO3 incorporation into malonyl-coA incubated for 10 min prior to substrate addition measured for 20 min by liquid scintillation counting.
Assay [11] concerns Hordeum vulgare. Put plainly: Inhibition of fatty acid synthesis in Hordeum vulgare (barley) using [14C]malonate assessed as [14C]-labeled 24C fatty acid level at 1 uM after 3 hr by liquid scintillation counting (reference value: 20.7 +/- 1.8%). The class given is functional. Also on record: scale not given: the % may be the effect or the level left.
The subject of assay [12] is Hordeum vulgare. Nature of the assay: Inhibition of fatty acid synthesis in Hordeum vulgare (barley) using [14C]acetate assessed as [14C]-labeled 24C fatty acid level at 1 uM after 3 hr by liquid scintillation counting (reference value: 11 +/- 0.8%). Format: functional. Further details: scale not given: the % may be the effect or the level left.
Assay [13] has as its system Cucumis sativus. Put plainly: Inhibition of fatty acid synthesis in Cucumis sativus (cucumber) using [14C]acetate assessed as [14C]-labeled 22C fatty acid level at 100 uM after 3 hr by liquid scintillation counting (reference value: 10.2 +/-1.6%). Format: functional. Further details: scale not given: the % may be the effect or the level left.
Assay [14] has as its system Hordeum vulgare. Put plainly: Inhibition of fatty acid synthesis in Hordeum vulgare (barley) using [14C]malonate assessed as [14C]-labeled 22C fatty acid level at 1 uM after 3 hr by liquid scintillation counting (reference value: 26.7 +/- 2.6%). Format: functional. Further details: scale not given: the % may be the effect or the level left.
Assay [15] concerns Hordeum vulgare. Put plainly: Inhibition of fatty acid synthesis in Hordeum vulgare (barley) using [14C]acetate assessed as [14C]-labeled 22C fatty acid level at 1 uM after 3 hr by liquid scintillation counting (reference value: 16.6 +/- 0.6%). The class given is functional. Also on record: scale not given: the % may be the effect or the level left.
Assay [16] concerns Cucumis sativus. Put plainly: Inhibition of fatty acid synthesis in Cucumis sativus (cucumber) using [14C]acetate assessed as [14C]-labeled 20C fatty acid level at 100 uM after 3 hr by liquid scintillation counting (reference value: 14.7 +/- 0.6%). Format: functional. Further details: scale not given: the % may be the effect or the level left.
Assay [17] has as its system Hordeum vulgare. Nature of the assay: Inhibition of fatty acid synthesis in Hordeum vulgare (barley) using [14C]acetate assessed as [14C]-labeled 20C fatty acid level at 1 uM after 3 hr by liquid scintillation counting (reference value: 6.6 +/- 2.3%). Format: functional. Also on record: scale not given: the % may be the effect or the level left.
In assay [18] the test system is Cucumis sativus. Nature of the assay: Inhibition of fatty acid synthesis in Cucumis sativus (cucumber) using [14C]acetate assessed as [14C]-labeled 18C fatty acid level at 100 uM after 3 hr by liquid scintillation counting (reference value: 43.9 +/- 3.6%). The class given is functional. Further details: scale not given: the % may be the effect or the level left.

Assay [19] relates to Hordeum vulgare. Nature of the assay: Inhibition of fatty acid synthesis in Hordeum vulgare (barley) using [14C]malonate assessed as [14C]-labeled 18C fatty acid level at 1 uM after 3 hr by liquid scintillation counting (reference value: 30.3 +/- 2.9%). Format: functional. Further details: scale not given: the % may be the effect or the level left.
Assay [20] relates to Hordeum vulgare. Put plainly: Inhibition of fatty acid synthesis in Hordeum vulgare (barley) using [14C]acetate assessed as [14C]-labeled 18C fatty acid level at 1 uM after 3 hr by liquid scintillation counting (reference value: 42.6 +/- 2.4%). Further details: scale not given: the % may be the effect or the level left. The class given is functional.

T1 sequence (Q3V4E6 whole entry): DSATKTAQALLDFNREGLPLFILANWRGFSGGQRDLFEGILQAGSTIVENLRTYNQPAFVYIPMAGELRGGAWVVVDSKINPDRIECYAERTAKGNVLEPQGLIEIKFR

Usually IC50 stands for the point on the concentration scale where inhibition reaches its midpoint. As to `CCc1cc(C)cc(CC)c1C1C(=O)N2CCOCCN2C1=O` [PINOXADEN DIONE], the Activity stood at 13.8% in the assay on Hordeum vulgare [1]; 7.7% with Hordeum vulgare [2]; 30.4% in the assay on Cucumis sativus [3]; 0.5% with Hordeum vulgare [4]; 3.1% in the assay with Hordeum vulgare [5]; 9.2 ×10⁶ dpm in the assay on Cucumis sativus [6]. Also, the Activity in the assay on Hordeum vulgare [7] was found to be 5.1 ×10⁶ dpm; with Hordeum vulgare [8] it was 2.8 ×10⁶ dpm; in the assay with Hordeum vulgare [11] it was 27.7%; with Hordeum vulgare [12] it was 32.6%; with Cucumis sativus [13] it was 11.9%; in the assay with Hordeum vulgare [14], 41.9%. In addition, the Activity came to 32.7% with Hordeum vulgare [15]; 10.1% in the assay with Cucumis sativus [16]; 3.6% with Hordeum vulgare [17]; 47.4% in the assay with Cucumis sativus [18]; 8.3% in the assay on Hordeum vulgare [19]; 18.1% with Hordeum vulgare [20]. Moreover, the IC50 on Acetyl-CoA carboxylase [9] came out at 110 nM; on Acetyl-CoA carboxylase [10], 16.9 µM.
